# Experimental data from PMC4008608, “The Tertiary Origin of the Allosteric Activation of E. coli Glucosamine-6-Phosphate Deaminase Studied by Sol-Gel Nanoencapsulation of Its T Conformer” (PLoS ONE, 2014).
# How the values were obtained:
# [1] = biological target: T1, EcGNPDA (glucosamine-6-phosphate deaminase from Escherichia coli) (Escherichia coli, UniProt P0A759, C118S/D165C/S206W/C228S/C239S); assay: initial velocity fitted to MWC equation; assay type: biochemical; settings: mutant F, soluble enzyme; MWC R-state substrate dissociation constant (stronger state) from velocity data; cooperative; read-out: K R ^a
# T1 construct: gene nagB; full-length homohexamer; plasmid pTZ18RnagB in E. coli IBPC590 Δnag (stated for the mutant); encapsulated in silica sol-gel in T quaternary conformation (mutant F also in solution)
# Excerpt: initial velocity fitted to MWC equation on […] (glucosamine-6-phosphate deaminase from Escherichia coli)
# [2] = biological target: T2, EcGNPDA (glucosamine-6-phosphate deaminase from Escherichia coli) (Escherichia coli, UniProt P0A759); assay: near-UV circular dichroism of enzyme-doped gels, […] nm; assay type: binding; settings: allosteric activator, 1 mM; ligand-free R-state gel; 100 mM Tris-HCl pH 7.7, 30°C
# T2 construct: gene nagB; full-length homohexamer; plasmid pTZ18RnagB in E. coli IBPC590 Δnag (stated for the mutant); encapsulated in silica sol-gel in T quaternary conformation (mutant F also in solution)
compound,measurement,setting,value
N[C@H]1C(O)O[C@H](COP(=O)(O)O)[C@@H](O)[C@@H]1O (some centres unmarked) [GlcN6P],Kd,[1],440 ± 10 µM
CC(=O)N[C@H]1C(O)O[C@H](COP(=O)(O)O)[C@@H](O)[C@@H]1O (some centres unmarked) [GlcNAc6P],"near-UV circular dichroism of enzyme-doped gels, 274 nm",[2],"Only the enzyme in the R state when in presence of the activator, displays"
